Where two headings read alike, the source gives them in different places.
Assays:
[1] = tested on: human breast cancer cell line T-47D; experiment: Caspase cascade activation (DEVD-R110 fluorogenic substrate) in T-47D cells; type: cell-based; settings: 24 h, read-out: Caspase Activation Potency EC50 (nM) (24 h) T-47D
Protocol: (§1) Human breast cancer cell line T-47D, human lung cancer cell line H1299 and human hepatocellular carcinoma cell line SNU398 were grown according to media component mixtures designated by American Type Culture Collection+10% FCS (Invitrogen Corporation), in a 5% CO2-95% humidity incubator at 37° C. T-47D and H1299 cells were maintained at a cell density between 50 and 80% confluency at a cell density of 0.1 to 0.6×10^6 cells/mL. Cells were harvested at 600×g and resuspended at 0.65×10^6 cells/mL into appropriate media+10% FCS. An aliquot of 22.5 μL of cells was added to a well of a 384-well microtiter plate containing 2.5 μL of a 10% DMSO in RPMI-1640 media solution containing 0.16 to 100 μM of N-(4-methoxyphenyl)-N, 2-dimethylthieno[3,2-d]pyrimidin-4-amine or other test compound (0.016 to 10 μM final). An aliquot of 22.5 μL of cells was added to a well of a 384-well microtiter plate containing 2.5 μL of a 10 % DMSO in RPMI-1640 media solution without test compound as the control sample. The samples were mixed by agitation and then incubated at 37° C. for 24 h or 48 h in a 5% CO2-95% humidity incubator. After incubation, the samples were removed from the incubator and 25 μL of a solution containing 14 μM of N-(Ac-DEVD)-N′-ethoxycarbonyl-R110 (SEQ ID No.:1) fluorogenic substrate (Cytovia, Inc.; WO99/18856), 20% sucrose (Sigma), 20 mM DTT (Sigma), 200 mM NaCI (Sigma), 40 mM Na PIPES buffer pH 7.2 (Sigma), and 500 μg/mL lysolecithin (Calbiochem) was added. The samples were mixed by agitation and incubated at room temperature. Using a fluorescent plate reader (Model SPECTRAfluor Plus, Tecan), an initial reading (T=0) was made approximately 1-2 min after addition of the substrate solution, employing excitation at 485 nm and emission at 530 nm, to determine the background fluorescence of the control sample. After the 3 h incubation, the samples were read for fluorescence as above (T=3 h).
(§2) The Relative Fluorescence Unit values (RFU) were used to calculate the sample readings as follows: RFU(T=3h)-Control RFU(T=0)=Net RFU(T=3h)
(§3) The activity of caspase cascade activation was determined by the ratio of the net RFU value for N-(4-methoxyphenyl)-N,2-dimethylthieno[3,2-d]pyrimidin-4-amine or other test compound to that of control samples. The EC50 (nM) was determined by a sigmoidal dose-response calculation (Prism 3.0, GraphPad Software Inc.).

[2] = tested on: human lung cancer cell line H1299; experiment: Caspase cascade activation (DEVD-R110 fluorogenic substrate) in H1299 cells; type: cell-based; settings: read-out: Caspase Activation Potency EC50 (nM) (24 h) H1299
Protocol: as §1, §2, §3

[3] = tested on: human hepatocellular carcinoma cell line SNU398; experiment: Caspase cascade activation (DEVD-R110 fluorogenic substrate) in SNU398 cells; type: cell-based
Protocol: as §1, §2, §3
Several compounds were also tested in other cancer cells lines (48 h assay), including human hepatocellular carcinoma cell line SNU398, human colon carcinoma cell line […], human B cell lymphoblastoid cell line Ramos, human Burkitt's lymphoma cell line Namalwa, and cervical cancer cell line HeLa, and the data are summarized in Table II.

[4] = tested on: HCT116; experiment: Caspase cascade activation in HCT116 cells; type: cell-based; settings: Homo sapiens, HCT-116; HCT116, 48 h; read-out: Caspase Activation Potency EC50 (nM) (48 h) HCT116
Protocol: (§4) Human breast cancer cell line T-47D, human lung cancer cell line H1299 and human hepatocellular carcinoma cell line SNU398 were grown according to media component mixtures designated by American Type Culture Collection+10% FCS (Invitrogen Corporation), in a 5% CO2-95% humidity incubator at 37° C. T-47D and H1299 cells were maintained at a cell density between 50 and 80% confluency at a cell density of 0.1 to 0.6×10^6 cells/mL. Cells were harvested at 600×g and resuspended at 0.65×10^6 cells/mL into appropriate media+10% FCS. […] Using a fluorescent plate reader (Model SPECTRAfluor Plus, Tecan), an initial reading (T=0) was made approximately 1-2 min after addition of the substrate solution, employing excitation at 485 nm and emission at 530 nm, to determine the background fluorescence of the control sample. After the 3 h incubation, the samples were read for fluorescence as above (T=3 h).
as §2
as §3, with “Inc.). […]” for “Inc.).”

[5] = tested on: cervical cancer cell line HeLa; experiment: Caspase cascade activation in HeLa cells; type: cell-based; settings: Homo sapiens, 48 h, read-out: Caspase Activation Potency EC50 (nM) (48 h) HeLa
Protocol: as §4, §2
as §3, with “Inc.). […]” for “Inc.).”

[6] = tested on: T-47D cells; experiment: Inhibition of cell proliferation (GI50, CellTiter-Glo) in T-47D cells; type: cell-based, human; settings: T47D, 48 h incubation, read-out: GI50 in Cancer Cells GI50 (nM) T47D
Protocol: (§5) T-47D, HT29, H1299, MX-1 and MDAMB435 cells were grown and harvested as in Example 29. An aliquot of 90 μL of cells (4.4×10^4 cells/mL) was added to a well of a 96-well microtiter plate containing 5 μL of a 10% DMSO in RPMI-1640 media solution containing 10 nM to 100 μM of N-(4-methoxyphenyl)-N,2-dimethylthieno[2,3-d]pyrimidin-4-amine (1 nM to 10 μM final) or related compounds. An aliquot of […] of cells was added to a well of a 96-well microtiter plate containing 5 μL of a 10% DMSO in RPMI-1640 media solution without compound as the control sample for maximal cell proliferation (LMax). The samples were mixed by agitation and then incubated at 37° C. for 48 h in a 5% CO2-95% humidity incubator. After incubation, the samples were removed from the incubator and 25 μL of CellTiter-Glo™ reagent (Promega) was added. The samples were mixed by agitation and incubated at room temperature for 10-15 min. Plates were then read using a luminescent plate reader (Model SPECTRAfluor Plus, Tecan) to give Ltest values.
(§6) The samples were mixed by agitation and then incubated at 37° C. for 0.5 h in a 5% CO2-95% humidity incubator. After incubation, the samples were removed from the incubator and 25 μL of CellTiter-Glo™ reagent (Promega) was added. The samples were mixed by agitation and incubated at […] room temperature in a 5% CO2-95% humidity incubator. […] was read as above, (Lstart) defining luminescence for initial cell number used as baseline in GI50 determinations. ps Calculation:
(§7) GI50 (dose for 50% inhibition of cell proliferation) is the concentration where [(LTest-LStart)/(LMax-LStart)]=0.5.

[7] = tested on: MX-1 cells; experiment: Inhibition of cell proliferation (GI50, CellTiter-Glo) in MX-1 cells; type: cell-based; settings: MX1, 48 h incubation, read-out: GI50 in Cancer Cells GI50 (nM) MX1
Protocol: as §5, §6, §7

[8] = tested on: MDAMB435 cells; experiment: Inhibition of cell proliferation (GI50, CellTiter-Glo) in MDAMB435 cells; type: cell-based; settings: MDAMB435, 48 h incubation, read-out: GI50 in Cancer Cells GI50 (nM) MDAMB435
Protocol: as §5, §6, §7

[9] = tested on: H1299 cells; experiment: Inhibition of cell proliferation (GI50, CellTiter-Glo) in H1299 cells; type: cell-based, human; settings: H1299, 48 h incubation, read-out: GI50 in Cancer Cells GI50 (nM) H1299
Protocol: as §5, §6, §7

[10] = tested on: HT29 cells; experiment: Inhibition of cell proliferation (GI50, CellTiter-Glo) in HT29 cells; type: cell-based; settings: HT29, 48 h incubation, read-out: GI50 in Cancer Cells GI50 (nM) HT29
Protocol: as §5, §6, §7

[11] = tested on: human sarcoma cell line MES-SA; experiment: Inhibition of cell proliferation (GI50) in MES-SA cells; type: cell-based
Protocol: as §5, §6, §7
(§8) Several compounds were tested in other cancer cell lines, including human sarcoma cell line MES-SA and multi-drug resistant (MDR) human sarcoma cell line MES-SA/ADR, murine leukemia cell line P388 and multi-drug resistant (MDR) murine leukemia cell line P388ADR, and the data are summarized in Table IV.

[12] = tested on: multi-drug resistant (MDR) human sarcoma cell line MES-SA/ADR; experiment: Inhibition of cell proliferation (GI50) in MES-SA/ADR cells; type: cell-based
Protocol: as §5, §6, §7, §8

[13] = tested on: murine leukemia cell line P388; experiment: Inhibition of cell proliferation (GI50) in P388 cells; type: cell-based
Protocol: as §5, §6, §7, §8

[14] = tested on: multi-drug resistant (MDR) murine leukemia cell line P388ADR; experiment: Inhibition of cell proliferation (GI50) in P388/ADR cells; type: cell-based
Protocol: as §5, §6, §7, §8

[15] = tested on: human lymphoma cell line Raji; experiment: Caspase cascade activation in Raji cells; type: cell-based; settings: 48 h, read-out: Caspase Activation Potency EC50 (nM) (48 h) Raji
Protocol: as §4, §2
as §3, with “Inc.). […]” for “Inc.).”

[16] = tested on: human B cell lymphoblastoid cell line Ramos; experiment: Caspase cascade activation in Ramos cells; type: cell-based; settings: 48 h, read-out: Caspase Activation Potency EC50 (nM) (48 h) Ramos
Protocol: as §4, §2
as §3, with “Inc.). […]” for “Inc.).”

[17] = tested on: human Burkitt's lymphoma cell line Namalwa; experiment: Caspase cascade activation in Namalwa cells; type: cell-based; settings: Burkitts lymphoma cell, 48 h, read-out: Caspase Activation Potency EC50 (nM) (48 h) Namalwa
Protocol: as §4, §2
as §3, with “Inc.). […]” for “Inc.).”

[18] = Homo sapiens, SNU-398, SNU398, 24 h, read-out: Caspase Activation Potency EC50 (nM) (24 h) SNU398
[19] = Homo sapiens, SNU-398, SNU398, 48 h, read-out: Caspase Activation Potency EC50 (nM) (48 h) SNU398

SMILES | EC50 ([1]; Homo sapiens, T47D) [nM] | EC50 ([2]; Homo sapiens, NCI-H1299, 24 h) [nM] | EC50 [3, 18] [nM] | EC50 [3, 19] [nM] | EC50 [4] [nM] | EC50 [5] [nM] | GI50 in Multi-Cancer Cells EC50 (nM) MES-SA [11] [nM] | GI50 in Multi-Cancer Cells EC50 (nM) MES-SA/ADR [12] [nM] | GI50 in Multi-Cancer Cells EC50 (nM) P388 [13] [nM] | GI50 in Multi-Cancer Cells EC50 (nM) P388/ADR [14] [nM] | other results
COc1ccc(N(C)c2nc(C)nc3sc(C)c(C)c23)cc1 [Example 24, N-(4-Methoxyphenyl)-N,2,5,6-tetramethylthieno[2,3-d]pyrimidin-4-amine] | 17 | 59 | 27 | 16 | 15 | 30 | – | – | – | – | –
COc1ccc(N(C)c2ncnc3ccsc23)cc1 [Example 6, N-(4-Methoxyphenyl)-N-methylthieno[3,2-d]pyrimidin-4-amine] | 45 | 56 | 123 | – | – | – | 58 | 100 | 74 | 105 | GI50 ([6]; Homo sapiens): 4 nM; GI50 ([7]; Homo sapiens): 40 nM; GI50 ([8]; Homo sapiens, MDA-MB-435): 16 nM; GI50 ([9]; Homo sapiens, NCI-H1299): 38 nM; GI50 ([10]; Homo sapiens, HT-29): 40 nM
COc1ccc(N(C)c2nc(C)nc3scc(C)c23)cc1 [Example 4, N-(4-Methoxyphenyl)-N,2,5-trimethylthieno[2,3-d]pyrnmidin-4-amine] | – | – | – | – | – | – | – | – | – | – | EC50 [1]: 4 nM; EC50 ([2]; H1299, 24 h): 9 nM; EC50 ([3]; SNU398, 24 h, read-out: Caspase Activation Potency EC50 (nM) (24 h) SNU398): 4 nM; GI50 [6]: 5 nM; GI50 [7]: 5 nM; GI50 [8]: 5 nM; GI50 [9]: 2 nM; GI50 [10]: 5 nM
COc1ccc(N(C)c2nc(C)nc3ccsc23)cc1 [Example 1, N-(4-Methoxyphenyl)-N,2-dimethylthieno[3,2-d]pyrimidin-4-amine] | 14 | 24 | 28 | – | – | – | 12 | 13 | 15 | 16 | –
COc1ccc(N(C)c2nc(C)nc3sccc23)cc1.Cl [Example 5, N-(4-Methoxyphenyl)-N,2-dimethylthieno[2,3-d]pyrimidin-4-amine hydrochloride] | 8 | 14 | 12 | 9 | 27 | 8 | 3 | 5 | 7 | 4 | EC50 [15]: 20 nM; EC50 [16]: 27 nM; EC50 [17]: 20 nM

Reference: patent publication US20070213305A1, “N-alkyl-N-aryl-thienopyrimidin-4-amines and analogs as activators of caspases and inducers of apoptosis and the use thereof” (Cytovia, Inc., priority 2005, published 2007)
